Measured values from patent US20040157867A1, “Pyrimidine phosphorylase as a target for imaging and therapy” (priority 2004, published 2004).
Like-named read-outs stand apart in the source and are kept apart here.

How the values were obtained:
[1] = tested on: MOLT4; test: Growth inhibition of MOLT4 tumor cells by BrUra; assay type: cell-based, human; details: 72 hr
Description: (§1) The five human-derived tumor cell lines shown below were incubated with BrUra at concentrations from 0.5 to 4.5 mM for 72 hours. (Cell lines are available at the ATCC, Manassas, Va.) Separate incubations were conducted in the presence or absence of 50 μM dUrd. Growth inhibition was determined as a percentage of control values for cells incubated without BrUra or dUrd. Consistent with the experiments described in Example 8, co-incubation with dUrd increased cytotoxicity of BrUra in all groups. As expected from their high level of TPase expression, U937 were the only cells with notable toxicity at 0.5 mM, and also the greatest toxicity at 1.5 and 4.5 mM. CEM, MOLT4, and K562 were substantially less affected by incubation with BrUra, consistent with a low intracellular activation rate because of low TPase expression.
(§2) % Growth Inhibition, Based Upon Control Doubling Time=24 Hr. BrUra Concentrations Ranged from 0.5 to 4.5 mM. Incubations were Conducted for 72 Hr in the Presence or Absence of 50 μM ddUrd.

[2] = target: T1, TPase (Homo sapiens, UniProt P19971); test: TPase inhibition in tumor cells co-incubated with human liver cytosol ([3H]-dThd incorporation into DNA); assay type: cell-based; details: BrUra 500 μM, U-937 or MOLT-4 cells with human liver cytosol (S100), 5-35% without BrUra
T1 sequence (P19971 11-482): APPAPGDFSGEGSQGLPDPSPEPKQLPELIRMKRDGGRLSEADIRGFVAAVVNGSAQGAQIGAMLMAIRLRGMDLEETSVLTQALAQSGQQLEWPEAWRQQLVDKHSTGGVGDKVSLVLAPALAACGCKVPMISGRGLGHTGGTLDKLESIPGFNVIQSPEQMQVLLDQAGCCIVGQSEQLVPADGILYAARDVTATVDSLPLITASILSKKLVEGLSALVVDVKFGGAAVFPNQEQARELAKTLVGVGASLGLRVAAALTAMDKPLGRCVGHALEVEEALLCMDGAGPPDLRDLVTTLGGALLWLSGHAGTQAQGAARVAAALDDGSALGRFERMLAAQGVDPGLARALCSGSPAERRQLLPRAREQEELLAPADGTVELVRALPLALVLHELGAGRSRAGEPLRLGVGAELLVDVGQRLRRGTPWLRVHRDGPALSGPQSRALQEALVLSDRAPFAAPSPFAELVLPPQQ
Description: [^3H]-dThd (0.02 μM) or [^3H]-dUrd (0.1 μM) was incubated with either U-937 or MOLT-4 tumor cells, and incorporation of [[…] into DNA was measured after 3 hours. Cytosol (S100) was prepared from human liver by differential centrifugation. This cytosol, which contains TPase, was co-incubated with U-937 or MOLT4 tumor cells to simulate the degradation of pyrimidine nucleosides in the body. Incorporation of [^3H]-dThd into DNA was decreased to 5-35% of baseline levels. When BrUra (500 μM) was also added to the incubation mixture, TPase inhibition was observed as increased incorporation of [^3H]-dThd in DNA, back to 39-89% of baseline levels.

[3] = tested on: K562; test: Growth inhibition of K562 tumor cells by BrUra; assay type: cell-based, human; details: 72 hr
Description: as §1, §2

[4] = tested on: CEM; test: Growth inhibition of CEM tumor cells by BrUra; assay type: cell-based, human; details: 72 hr
Description: as §1, §2

[5] = tested on: Dunning rat prostatic tumors; test: 5-X-Ura incorporation into tumor DNA in vivo; details: BrUra intravenously, tumors harvested 105 minutes after injection
Description: Dunning rat prostatic tumors were implanted (250,000 cells) subcutaneously in 3 rats. Two weeks post-implantation, the tumors had reached 7-20 g in size and the rats weighed about 250 g. At 2 weeks post-implantation, TPase was measured. BrUra was prepared in an aqueous solution, adjusted to pH 9 (the same formulation used clinically for its analog, FUra), and injected intravenously via a tail vein. The rats were sacrificed 105 minutes after the injection, and the tumors were harvested. DNA from the tumor was isolated, digested, and the nucleosides analyzed by HPLC (Klecker, 1994). BrdUrd was found in the DNA of the tumors, replacing 0.15% of the dThd bases.

[6] = target: T1, TPase; test: TPase inhibition in intact human hepatocytes ([3H]-Ura formation from [3H]-dUrd); assay type: cell-based; set-up: Cryopreserved human hepatocytes were procured from In Vitro Technologies, Inc; host or cells: cryopreserved human hepatocytes; details: [3H]-dUrd 0.2 μM, one hour
Description: Cryopreserved human hepatocytes were procured from In Vitro Technologies, Inc. (Catonsville, Md.) and processed according to the supplier's instructions. TPase activity was monitored for one hour by measuring formation of [^3H]-Ura from [^3H]-dUrd, 0.2 μM. Co-incubation of tritiated dUrd with 100 μM BrUra inhibited TPase by 48%, and 500 μM of BrUra inhibited TPase by 85%.

[7] = tested on: U937; test: Growth inhibition of U937 tumor cells by BrUra; assay type: cell-based, human; details: 72 hr
Description: as §1, §2

[8] = tested on: Raji; test: Growth inhibition of Raji tumor cells by BrUra; assay type: cell-based, human; details: 72 hr
Description: as §1, §2

[9] = tested on: U-937 cells; test: Enhancement of BrUra trapping into DNA by dR-1-P prodrugs; assay type: cell-based, human; details: 24 hours, 20 μM BrUra and 20 μM deoxyribonucleoside
Description: The effect of dR-1-P prodrugs was examined in U-937 cells. Cells were incubated for 24 hours with 20 μM BrUra and 20 μM of six different deoxyribonucleosides. The use of prodrugs for dR-1-P is described as a way of driving the reaction catalyzed by TPase in the direction of thymidine production. As illustrated in the bar chart, in FIG. 3, the maximum enhancement of BrUra trapping in DNA was 24-fold, for dUrd. An increase of 6-fold was found for dIno.

[10] = cited from earlier work
[11] = tested on: U-937 cells implanted subcutaneously in nude mice; test: Incorporation of [3H]-BrUra into tumor DNA in vivo, modulation with eniluracil; details: eniluracil 2 mg/kg i.p. thirty minutes prior to i.v. [3H]-BrUra, 24 hours
Description: U-937 cells (ATCC; Manassas, Va.) were implanted subcutaneously in nude mice. When tumors grew to about 0.5 gram, [^3H]-BrUra was injected i.v. One set of mice received eniluracil, 2 mg/kg, injected i.p. thirty minutes prior to i.v. [3H]-BrUra, and the other set received no treatment prior to [^3H]-BrUra i.v. Both sets of mice were killed 24 hours later, and tumors and blood removed. DNA from tumors was extracted and analyzed using our established techniques (Klecker et al., 1994). [^3H]-BrdUrd was found in DNA in tumors by radiochromatography, indicating conversion of [^3H]-BrUra in vivo, similar to our results for cell culture.

Compound: O=c1[nH]cc(Br)c(=O)[nH]1 [BrUra, bromouracil]
- % Growth Inhibition ([1]; MOLT4, BrUra 0.5 mM, with 50 μM dUrd): 8%
- % Growth Inhibition ([1]; MOLT4, BrUra 0.5 mM, without dUrd): 6%
- % Growth Inhibition ([1]; MOLT4, BrUra 1.5 mM, with 50 μM dUrd): 25%
- % Growth Inhibition ([1]; MOLT4, BrUra 1.5 mM, without dUrd): 26%
- % Growth Inhibition ([1]; MOLT4, BrUra 4.5 mM, with 50 μM dUrd): 85%
- % Growth Inhibition ([1]; MOLT4, BrUra 4.5 mM, without dUrd): 66%
- incorporation of [3H]-dThd in DNA, of baseline levels [2]: 39-89%
- % Growth Inhibition ([3]; K562, BrUra 0.5 mM, with 50 μM dUrd): −6%
- % Growth Inhibition ([3]; K562, BrUra 0.5 mM, without dUrd): −7%
- % Growth Inhibition ([3]; K562, BrUra 1.5 mM, with 50 μM dUrd): 28%
- % Growth Inhibition ([3]; K562, BrUra 1.5 mM, without dUrd): 13%
- % Growth Inhibition ([3]; K562, BrUra 4.5 mM, with 50 μM dUrd): 77%
- % Growth Inhibition ([3]; K562, BrUra 4.5 mM, without dUrd): 57%
- % Growth Inhibition ([4]; BrUra 0.5 mM, with 50 μM dUrd): 13%
- % Growth Inhibition ([4]; BrUra 0.5 mM, without dUrd): 6%
- % Growth Inhibition ([4]; BrUra 1.5 mM, with 50 μM dUrd): 65%
- % Growth Inhibition ([4]; BrUra 1.5 mM, without dUrd): 23%
- % Growth Inhibition ([4]; BrUra 4.5 mM, with 50 μM dUrd): 95%
- % Growth Inhibition ([4]; BrUra 4.5 mM, without dUrd): 89%
- BrdUrd found in DNA of the tumors, replacing dThd bases [5]: 0.15%
- TPase inhibition ([6]; 100 μM BrUra): 48%
- TPase inhibition ([6]; 500 μM BrUra): 85%
- % Growth Inhibition ([7]; U937, BrUra 0.5 mM, with 50 μM dUrd): 28%
- % Growth Inhibition ([7]; U937, BrUra 0.5 mM, without dUrd): 16%
- % Growth Inhibition ([7]; U937, BrUra 1.5 mM, with 50 μM dUrd): 77%
- % Growth Inhibition ([7]; U937, BrUra 1.5 mM, without dUrd): 47%
- % Growth Inhibition ([7]; U937, BrUra 4.5 mM, with 50 μM dUrd): 100%
- % Growth Inhibition ([7]; U937, BrUra 4.5 mM, without dUrd): 100%
- % Growth Inhibition ([8]; BrUra 0.5 mM, with 50 μM dUrd): 9%
- % Growth Inhibition ([8]; BrUra 0.5 mM, without dUrd): 2%
- % Growth Inhibition ([8]; BrUra 1.5 mM, with 50 μM dUrd): 24%
- % Growth Inhibition ([8]; BrUra 1.5 mM, without dUrd): 27%
- % Growth Inhibition ([8]; BrUra 4.5 mM, with 50 μM dUrd): 67%
- % Growth Inhibition ([8]; BrUra 4.5 mM, without dUrd): 65%

Compound: O=c1ccn([C@H]2C[C@H](O)[C@@H](CO)O2)c(=O)[nH]1 [dUrd]
- enhancement of BrUra trapping in DNA [9]: 24 fold

Compound: O=c1[nH]cc(F)c(=O)[nH]1 [5-FUra, 5-fluorouracil]
- increase in 5-FUra exposure ([10]; presence versus absence of eniluracil): 50- to 100 fold
- Plasma clearance of 5-FUra ([10]; with eniluracil): 0.1 L/min
- recovered unchanged in the urine ([10]; with eniluracil): 77%
- tolerated dose upon continuous dosing ([10]; with eniluracil): 2 mg/day per square meter of body surface
- Plasma clearance of 5-FUra ([10]; without eniluracil): 5.0 L/min
- recovered unchanged in the urine ([10]; without eniluracil): less than 10%

Compound: C#Cc1c[nH]c(=O)[nH]c1=O [eniluracil]
- increase of incorporation of radioactivity into DNA from [3H]-BrUra [11]: five-fold

Compound: OC[C@H]1O[C@@H](n2cnc3c(O)ncnc32)C[C@@H]1O [dIno, deoxyinosine]
- enhancement of BrUra trapping in DNA [9]: 6 fold
